Measurements taken from the supplement of paper PMC8967900.

Legend:
Assay in all cases: selective drug sensitivity score (sDSS, relative to normal bone marrow) (sDSS (score)); higher = more potent and effective on the cell line relative to normal bone marrow cells
Details in all cases: 72 h
[1] = tested on: MOLT-16
[2] = tested on: NALM-16
[3] = tested on: MHH-CALL-4
[4] = tested on: REH
[5] = tested on: 697
[6] = tested on: CCRF-CEM
[7] = tested on: SUP-B15
[8] = tested on: KOPN-8
[9] = tested on: COG-LL-402h
[10] = tested on: COG-LL-317
[11] = tested on: ALL-PO
[12] = tested on: TMD5
[13] = tested on: NALM-6
[14] = tested on: MHH-CALL-2
[15] = tested on: KARPAS-45
[16] = tested on: RPMI-8402
[17] = tested on: PEER
[18] = tested on: PF-382
[19] = tested on: COG-LL-332h
[20] = tested on: MOLT-4
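Note: ALL cell lines in 384-well plates, five doses spanning 10,000-fold, each plate scaled between vehicle and 100 µmol/L benzalkonium chloride controls, sDSS an adapted area-under-curve metric.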

SMILES	selective drug sensitivity score [1]	selective drug sensitivity score [2]	selective drug sensitivity score [3]	selective drug sensitivity score [4]	selective drug sensitivity score [5]	selective drug sensitivity score [6]	selective drug sensitivity score [7]	selective drug sensitivity score [8]	selective drug sensitivity score [9]	selective drug sensitivity score [10]	selective drug sensitivity score [11]	selective drug sensitivity score [12]	selective drug sensitivity score [13]	selective drug sensitivity score [14]	selective drug sensitivity score [15]	selective drug sensitivity score [16]	selective drug sensitivity score [17]	selective drug sensitivity score [18]	selective drug sensitivity score [19]	selective drug sensitivity score [20]
C[C@H]1C[C@@H]2[C@H]([C@@H](O)C[C@@]3(C)[C@H]2CC[C@]3(O)C(=O)CO)[C@@]2(C)C=CC(=O)C=C12 [Methylprednisolone] (top concentration 10000 nM)	7.9	-2.3	31.6	-2.3	22.3	6.4	32.9	21.1	18.5	5.4	34.1	15	22.4	26.5	16.4	-2.1	-1.5	-1.6	-0.7	-2.3
FC(F)(F)c1ccc(/C=C/c2nc(COc3ccc(CCCCn4ccnn4)cc3)co2)cc1 [Mubritinib] (top concentration 1000 nM)	18.6	4.66	3.46	20	15.5	6.06	10.6	7.76	-0.84	2.26	6.16	0.26	12.1	4.76	11.6	22.5	21.7	14.2	8.06	19.6
COc1cc2c(cc1OC(C)C)[C@H](c1ccc(Cl)cc1)N(c1ccc(N(C)C[C@H]3CC[C@H](N4CCN(C)C(=O)C4)CC3)cc1)C(=O)C2 [NVP-CGM097] (top concentration 25000 nM)	10.4	-4.54	7.06	5.16	7.86	-4.24	18.6	10.4	12.1	17.2	-3.84	7.86	5.66	10.8	-3.94	-4.64	-2.14	-5.04	8.26	11.8
CCOc1cc2ncc(C#N)c(Nc3ccc(OCc4ccccn4)c(Cl)c3)c2cc1NC(=O)/C=C/CN(C)C [Neratinib] (top concentration 1000 nM)	1.98	1.78	-0.22	-0.12	6.28	2.48	1.48	2.28	7.78	1.18	5.28	-0.52	0.48	2.58	2.28	3.08	2.88	0.88	1.88	1.38
COc1ncc(-c2ccc3nccc(-c4ccnnc4)c3c2)cc1NS(=O)(=O)c1ccc(F)cc1F [Omipalisib] (top concentration 1000 nM)	10	8.1	13.1	14.4	11.9	12	7.3	15.1	13.4	4	21.9	-2.2	17.2	11	9.4	10.9	-3	9.8	3.2	14
CN1CCN(c2cc(C(=O)Nc3ccc4c(c3)-c3c(c(C(N)=O)nn3-c3ccc(F)cc3)CC4)c(Cl)cn2)CC1 [PHA-408] (top concentration 10000 nM)	1.28	-4.62	2.18	0.08	0.78	0.48	3.08	3.88	-3.92	-1.22	0.78	-1.22	0.78	1.58	0.98	1.88	3.18	1.48	2.98	0.58
OC[C@H]1O[C@@H](n2cnc3c2N=CNC[C@H]3O)C[C@@H]1O [Pentostatin] (top concentration 10000 nM)	-0.34	-0.44	-0.44	-0.44	-0.44	-0.34	0.66	-0.14	-0.44	-0.44	-0.44	-0.24	-0.44	-0.44	-0.14	-0.44	-0.44	-0.44	-0.44	-0.44
CC(C)N(C[C@H]1O[C@@H](n2cnc3c(N)ncnc32)[C@H](O)[C@@H]1O)[C@H]1C[C@@H](CCc2nc3cc(C(C)(C)C)ccc3[nH]2)C1 [Pinometostat] (top concentration 1000 nM)	0	0	0	0	0	0	0	0	0	0	0	0	0	0	0	0	0	0	0	0
Cc1ccc(=O)n(-c2ccccc2)c1 [Pirfenidone] (top concentration 10000 nM)	0	0	0	0	0	0	0	0	0	0	0	0	0	0	0	0	0	0	0	0
